Test results as given in patent publication US10570117B2, “Phenylimidazole compound” (Otsuka Pharmaceutical Factory, Inc., priority 2015, dated 2020).
Values after ≈ are worked out from the molar mass of the structure shown. Like-named read-outs stand apart in the source and are kept apart here.

Key:
[1] = tested on: lipoprotein lipase (LPL) gene; assay: LPL mRNA elevating action (RT-PCR quantification of LPL mRNA in C2Cl2 cells); format: cell-based, mouse; conditions: Mus musculus, 24 h, compound 10 μM, ratio relative to the amount of LPL mRNA in cells with DMSO only, read-out: Rate of increase in LPL mRNA
Protocol: LPL mRNA Elevating Action
C2Cl2 cells (cell strain derived from striated muscle of mouse) were seeded in 96-well plates using a DMEM medium (Gibco) (containing 2 mM L-glutamine and 10% fetal bovine serum). After the cells were grown, the medium was removed. Subsequently, media obtained by adding dimethyl sulfoxide (DMSO) solutions of the compounds to the same medium as described above to a concentration of 10 μM were individually added to the cells and allowed to stand for 24 hours. The compound-containing media were removed, and the plates were washed with phosphate buffered saline. Thereafter, the remaining cells were lysed and subjected to a reverse transcription polymerase chain reaction (RT-PCR reaction) to obtain cDNA. Primers specific to lipoprotein lipase (LPL) gene, a necessary enzyme, etc., were added to the obtained cDNA. The mixture was set in 7500 Fast Real Time PCR System produced by Applied Biosystem to perform a PCR reaction (20 cycles) and the amount of LPL mRNA amplified was quantified. The LPL mRNA elevating action of each compound in the test cells was indicated as the ratio relative to the amount of LPL mRNA in cells allowed to stand in a medium to which only DMSO was added, with the amount being defined as 1.
As Comparative Example 1, a test was performed in the same manner as above, using a compound disclosed as the compound of Example 57 in WO2010/090200.

[2] = Solubility in gastric juice or intestinal juice model fluid (precipitation method using DMSO); format: physicochemical; conditions: room temperature
Summary of the method: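 Compound in DMSO added to JP disintegration test fluid 1 (pH 1.2) or fluid 2 (pH 6.8) and shaken 24 h at room temperature. After filtration, dissolved concentration (μg/mL) determined by UV absorbance against compound calibration curves.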

[3] = pH 1.2, simulated gastric fluid, kinetic from dmso stock, 1st fluid for Disintegration Test of Japanese Pharmacopoeia (pH: 1.2), read-out: Solubility (μg/mL) 1st fluid
[4] = pH 6.8, kinetic from dmso stock, 2nd fluid for Disintegration Test of Japanese Pharmacopoeia (pH: 6.8), read-out: Solubility (μg/mL) 2nd fluid

Row | Structure (SMILES) | melting point | solubility at 24 h [2, 3] [µg/mL] | solubility at 24 h [2, 4] [µg/mL] | fold induction at 10 µM [1]
1 | COc1cc(OCc2cnc(Cl)cn2)ccc1-c1c[nH]c(-c2ccc(Cl)nc2)n1 [Example 20] | 219 to 221 °C | – | – | 2.78
2 | COc1cc(OCc2ccc(C(F)(F)F)nc2)ccc1-c1c[nH]c(-c2ccc(Cl)cn2)n1 [Example 32] | 186 to 189 °C | – | – | 2.58
3 | COc1cc(OCc2ncccc2C#N)ccc1-c1c[nH]c(-c2ccc(Cl)nc2)n1 [Example 33] | 193 to 195 °C | – | – | 2.92
4 | COc1cc(-c2c[nH]c(-c3ccc(Cl)nc3)n2)cc(OC)c1OCc1ccc(C(F)(F)F)cn1 [Example 71] | 171 to 173 °C (dec.) | – | – | 2.37
5 | COc1cc(OCc2cnc(Cl)cn2)ccc1-c1c[nH]c(-c2ccc(F)nc2)n1 [Example 123] | 197 to 199 °C | – | – | 3.22
6 | COc1cc(OCc2ncc(Cl)cc2Br)ccc1-c1cnc(-c2ccc(F)nc2)[nH]1 [Example 134] | 176 to 180 °C | – | – | 2.85
7 | COc1cc(OCc2ccc(F)cc2F)ccc1-c1cnc(-c2ccc(F)nc2)[nH]1 [Example 142] | 168 to 173 °C | – | – | 2.27
8 | COc1cc(OCc2ncc(Cl)cc2F)ccc1-c1[nH]c(-c2ccc(Cl)nc2)nc1Br [Example 248] | 172 to 176 °C | – | – | 2.36
9 | COc1cc(OCc2ncc(Cl)cc2F)ccc1-c1[nH]c(-c2ccc(Cl)nc2)nc1Cl [Example 249] | 174 to 181 °C | – | – | 2.5
10 | COc1cc(-c2cnc(-c3ccc(F)nc3)[nH]2)ccc1OCc1ncc(C(F)(F)F)cc1F [Example 324] | – | 20.2 (≈ 43.7 µM) | 0.8 (≈ 1.73 µM) | 1.95
11 | COc1cc(O)ccc1-c1cnc(C2CCC(F)(F)CC2)[nH]1 [Example 338] | – | > 62 | 59.7 (≈ 194 µM) | 1.32
12 | COc1cc(OCc2ncc(C(F)(F)F)cc2F)ccc1-c1cnc(C2CCC(F)(F)C2)[nH]1 (stereo not drawn) [Example 340] | – | 93.8 (≈ 199 µM) | 8.1 (≈ 17.2 µM) | 2.26
13 | COc1cc(-c2cnc(C3CCC(F)(F)C3)[nH]2)ccc1OCc1ncc(C(F)(F)F)cc1F (stereo not drawn) [Example 341] | – | 91.7 (≈ 195 µM) | 15.8 (≈ 33.5 µM) | 1.75
14 | COc1cc(-c2cnc(C3CCCC3)[nH]2)ccc1OCc1ncc(C(F)(F)F)cc1F [Example 366] | – | 79.2 (≈ 182 µM) | 24.7 (≈ 56.7 µM) | 1.95
15 | COc1cc(OCc2ncc(C(F)(F)F)cc2F)ccc1-c1cnc(C2CCC2)[nH]1 [Example 371] | – | 84 (≈ 199 µM) | 42.9 (≈ 102 µM) | 3.57
16 | COc1cc(-c2cnc(C3CCC3)[nH]2)ccc1OCc1ncc(C(F)(F)F)cc1F [Example 372] | – | 80.4 (≈ 191 µM) | 33.5 (≈ 79.5 µM) | 1.95
17 | COc1cc(OCc2ncc(C(F)(F)F)cc2F)ccc1-c1cnc(C2CC2)[nH]1 [Example 375] | – | 73.9 (≈ 181 µM) | 72.5 (≈ 178 µM) | 1.83
18 | COc1cc(-c2cnc(C3CC3)[nH]2)ccc1OCc1ncc(C(F)(F)F)cc1F [Example 376] | – | 75.2 (≈ 185 µM) | 79.4 (≈ 195 µM) | 1.18
19 | COc1cc(-c2cnc(C(C)C)[nH]2)ccc1OCc1ncc(C(F)(F)F)cc1F [Example 382] | – | 74.8 (≈ 183 µM) | 62.1 (≈ 152 µM) | 1.41
20 | CCCCOC(C)n1cc(-c2ccc(OCc3ncc(C(F)(F)F)cc3F)cc2OC)nc1-c1ccc(F)nc1 (stereo not drawn) [Example 389] | – | 96 (≈ 171 µM) | 1.8 (≈ 3.2 µM) | 1.63
21 | COc1cc(-c2cnc(CCC(F)(F)F)[nH]2)ccc1OCc1ncc(C(F)(F)F)cc1F [Example 391] | – | 1.1 (≈ 2.37 µM) | 7.1 (≈ 15.3 µM) | 1.58
22 | COc1cc(-c2cnc(-c3ccc(F)nc3)[nH]2)ccc1OC(C)c1ncc(C(F)(F)F)cc1F (stereo not drawn) [Example 392] | – | 60.8 (≈ 128 µM) | < 0.3 | 1.73
23 | Fc1ccc(-c2ncc(-c3ccc(OCc4ncc(C(F)(F)F)cc4F)cc3OCc3ccccc3)[nH]2)cn1 [Example 398, 2-[(3-(benzyloxy)-4-(2-(6-fluoropyridin-3-yl)-1H-imidazol-5-yl)phenoxy)methyl]-3-fluoro-5-(trifluoromethyl)pyridine] | – | 79.2 (≈ 147 µM) | 39.7 (≈ 73.7 µM) | 2.22

More lines, main results first:

Row | melting point | solubility at 24 h [2, 3] [µg/mL] | solubility at 24 h [2, 4] [µg/mL] | Structure (SMILES) | fold induction at 10 µM [1]
24 | 222 to 224 °C | – | – | COc1cc(OCc2cccc(C(F)(F)F)n2)ccc1-c1c[nH]c(-c2ccc(Cl)nc2)n1 [Example 36] | 2.4
25 | 189 to 191 °C | – | – | COc1cc(OCc2cccc(C(F)(F)F)n2)ccc1-c1[nH]c(-c2ccc(F)nc2)nc1Cl [Example 172] | 3.12
26 | 163 to 166 °C | – | – | COc1cc(OCc2ccc(C(F)(F)F)cc2)ccc1-c1[nH]c(-c2ccc(F)nc2)nc1Cl [Example 176] | 2.83
27 | 222 to 223 °C (dec.) | – | – | COc1cc(OCc2ccc(C(F)(F)F)nc2)ccc1-c1nc(-c2ccc(Cl)nc2)[nH]c1Br [Example 222] | 2.89
28 | 195 to 197 °C (dec.) | – | – | COc1cc(OCc2ccc(C(F)(F)F)nc2)ccc1-c1nc(-c2ccc(F)nc2)[nH]c1Br [Example 224, 5-[(4-(4-bromo-2-(6-fluoropyridin-3-yl)-1H-imidazol-5-yl)-3-methoxyphenoxy)methyl]-2-(trifluoromethyl)pyridine] | 2.29
29 | 176 to 177 °C | – | – | COc1cc(OCc2ccc(C(F)(F)F)nc2)ccc1-c1nc(-c2ccc(F)nc2)[nH]c1Cl [Example 227] | 5.08
30 | 205 to 208 °C | – | – | COc1cc(OCc2ccc(C(F)(F)F)nc2)ccc1-c1nc(-c2ccc(Cl)nc2)[nH]c1Cl [Example 229] | 2.62
31 | 180 to 182 °C | – | – | COc1cc(OCc2ccc(C(F)(F)F)cn2)ccc1-c1nc(-c2ccc(Cl)nc2)[nH]c1Cl [Example 235] | 2.78
32 | 198 to 201 °C | – | – | COc1cc(OCc2cncc(C(F)(F)F)c2)ccc1-c1[nH]c(-c2ccc(Cl)nc2)nc1Cl [Example 241] | 2.45
33 | 236 to 239 °C | – | – | COc1cc(OCc2ccnc(C(F)(F)F)c2)ccc1-c1[nH]c(-c2ccc(Cl)nc2)nc1Cl [Example 242] | 2.38
34 | 186 to 199 °C | – | – | COc1cc(OCc2cncc(C(F)(F)F)c2)ccc1-c1[nH]c(-c2ccc(Cl)nc2)nc1Br [Example 252] | 2.58
35 | 148 to 170 °C | – | – | COc1cc(OCc2ncc(C(F)(F)F)cc2Br)ccc1-c1[nH]c(-c2ccc(F)nc2)nc1Br [Example 254] | 2.71
36 | 164 to 166 °C | – | – | COc1cc(OCc2ccc(F)cc2F)ccc1-c1[nH]c(-c2ccc(F)nc2)nc1Br [Example 258] | 2.91
37 | 165 to 167 °C | – | – | COc1cc(OCc2ccc(Cl)cc2F)ccc1-c1[nH]c(-c2ccc(F)nc2)nc1Br [Example 259] | 2.93
38 | 158 to 161 °C | – | – | COc1cc(OCc2ccc(Br)cc2F)ccc1-c1[nH]c(-c2ccc(F)nc2)nc1Br [Example 260] | 2.95
39 | 179 to 180 °C | – | – | COc1cc(OCc2ncc(C(F)(F)F)cc2Cl)ccc1-c1[nH]c(-c2ccc(F)nc2)nc1Br [Example 261] | 4.08
40 | 160 to 162 °C | – | – | COc1cc(OCc2ncc(C(F)(F)F)cc2Cl)ccc1-c1[nH]c(-c2ccc(F)nc2)nc1Cl [Example 262] | 3.61
41 | 166 to 170 °C | – | – | COc1cc(OCc2ncc(C(F)(F)F)cc2Br)ccc1-c1[nH]c(-c2ccc(F)nc2)nc1Cl [Example 263] | 3.18
42 | – | 73 (≈ 137 µM) | 2.3 (≈ 4.32 µM) | COc1cc(OCc2ccc(C(F)(F)F)cn2)ccc1-c1c(Cl)nc(-c2ccc(F)nc2)n1CC1CC1 [Example 296] | 3.48
43 | – | 95.5 (≈ 195 µM) | 5 (≈ 10.2 µM) | CCc1nc(-c2ccc(F)nc2)[nH]c1-c1ccc(OCc2ncc(C(F)(F)F)cc2F)cc1OC [Example 362] | 2.89
44 | – | 37 (≈ 75.1 µM) | 2.9 (≈ 5.89 µM) | COc1cc(OCc2ncc(C(F)(F)F)cc2F)ccc1-c1[nH]c(-c2ccc(F)nc2)nc1CO [Example 413, [5-(4-((3-fluoro-5-(trifluoromethyl)pyridin-2-yl)methoxy)-2-methoxyphenyl)-2-(6-fluoropyridin-3-yl)-1H-imidazol-4-yl]methanol] | 2.06
